These results are taken from patent publication US20060276464A1, “Diarylsulfone sulfonamides and use thereof” (Wyeth, priority 2005, published 2006).

The target of this data set is T1, SFRP-1 (Homo sapiens, UniProt Q8N474).
T1 sequence (Q8N474 32-314): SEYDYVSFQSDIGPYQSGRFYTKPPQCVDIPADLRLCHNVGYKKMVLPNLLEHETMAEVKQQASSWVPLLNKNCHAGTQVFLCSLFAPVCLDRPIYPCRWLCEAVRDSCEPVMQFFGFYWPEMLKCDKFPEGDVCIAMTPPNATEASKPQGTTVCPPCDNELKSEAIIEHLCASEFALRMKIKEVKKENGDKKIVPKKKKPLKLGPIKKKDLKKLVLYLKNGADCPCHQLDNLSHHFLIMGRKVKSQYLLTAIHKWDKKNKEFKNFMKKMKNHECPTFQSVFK
As to the kind of experiment: Cell-based assay for in vitro measurement of SFRP-1/SARP2 antagonist activity (U2OS cells co-transfected with 16x TCF-tk-Luciferase reporter, Wnt and hSFRP-1).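 For all read-outs here: U2OS cells co-transfected with a TCF-tk luciferase reporter, a Wnt vector, hSFRP-1 or empty vector and CMV-βgal, luciferase luminescence read in cell lysates alongside βgal activity.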 As to conditions: for fold induction at 15 µM / fold induction at 60 µM: U2OS. For orientation: A reporter such as luciferase makes a cellular process visible.

Where [1] appears, read: read-out: Fold Induction with SFRP-1, Conc 15 μM, with SFRP-1, fold induction over SFRP-1 control, single dose.
Setting [2] is: read-out: Fold Induction without SFRP-1, Conc 15 μM, without SFRP-1, single dose.
The mark [3] stands for this setting: Conc 15 μM, with SFRP-1, fold induction over SFRP-1 control, single dose.
[4] abbreviates: Conc 15 μM, without SFRP-1, single dose.

Like-named read-outs stand apart in the source and are kept apart here.

With `Cc1ccc(S(=O)(=O)c2ccc(F)cc2)cc1S(=O)(=O)NCC1CCOCC1` [Example 383, 5-[(4-fluorophenyl)sulfonyl]-2-methyl-N-(tetrahydro-2H-pyran-4-ylmethyl)benzenesulfonamide], the fold induction at 15 µM worked out at 2.1 under setting [1] and 0.9 under setting [2].
The corresponding values for `CCc1ccc(S(=O)(=O)c2ccc(F)cc2)cc1S(=O)(=O)NCC1CCOCC1` [Example 384, 2-ethyl-5-[(4-fluorophenyl)sulfonyl]-N-(tetrahydro-2H-pyran-4-ylmethyl)benzenesulfonamide] are 2.6 and 0.8.
On to `Cc1cc(C)c(S(=O)(=O)c2ccccc2)cc1S(=O)(=O)NCC1CCOCC1` [Example 385, 2,4-dimethyl-5-(phenylsulfonyl)-N-(tetrahydro-2H-pyran-4-ylmethyl)benzenesulfonamide], for which the fold induction at 15 µM under setting [1] stood at 2.7 and the fold induction at 15 µM under setting [2] worked out at 1.
In the case of `Cc1ccc(S(=O)(=O)c2ccccc2)cc1S(=O)(=O)NCC(O)c1ccccc1` (stereo not shown) [Example 386, N-(2-hydroxy-2-phenylethyl)-2-methyl-5-(phenylsulfonyl)benzenesulfonamide], the fold induction at 15 µM worked out at 1.8 under setting [1] and 1 under setting [2].
For the compound `Cc1ccc(S(=O)(=O)c2ccc(F)cc2)cc1S(=O)(=O)NCC(O)c1ccccc1` (stereo not shown) [Example 387, 5-[(4-fluorophenyl)sulfonyl]-N-(2-hydroxy-2-phenylethyl)-2-methylbenzenesulfonamide], the fold induction at 15 µM under setting [1] turned out to be 1.7 and the fold induction at 15 µM under setting [2] came out at 1.4.
Take `CCc1ccc(S(=O)(=O)c2ccc(F)cc2)cc1S(=O)(=O)NCC(O)c1ccccc1` (stereo not shown) [Example 388, 2-ethyl-5-[(4-fluorophenyl)sulfonyl]-N-(2-hydroxy-2-phenylethyl)benzenesulfonamide]: the fold induction at 15 µM is, setting by setting: under setting [1], 2.2; under setting [2], 1.1.
For `Cc1cc(C)c(S(=O)(=O)c2ccccc2)cc1S(=O)(=O)NCC(O)c1ccccc1` (stereo not shown) [Example 389, N-(2-hydroxy-2-phenylethyl)-2,4-dimethyl-5-(phenylsulfonyl)benzenesulfonamide] the same measures were 1.5 and 1.1.
As to `Cc1ccc(S(=O)(=O)c2ccccc2)cc1S(=O)(=O)NC(C)C(O)c1ccccc1` (stereo not drawn) [Example 390, trans-N-(2-hydroxy-1-methyl-2-phenylethyl)-2-methyl-5-(phenylsulfonyl)benzenesulfonamide], under setting [3], the “Fold Induction with SFRP-1” value was found to be 2.2 fold. For the same compound, the “Fold Induction without SFRP-1” value under setting [4] was found to be 1.1 fold.
In the case of `Cc1ccc(S(=O)(=O)c2ccc(F)cc2)cc1S(=O)(=O)NC(C)C(O)c1ccccc1` (stereo not drawn) [Example 391, 5-[(4-fluorophenyl)sulfonyl]-N-[trans-2-hydroxy-1-methyl-2-phenylethyl]-2-methylbenzenesulfonamide], the “Fold Induction with SFRP-1” value under setting [3] amounted to 1.8 fold. Moreover, under setting [4], the “Fold Induction without SFRP-1” value is recorded as 1.1 fold.
For `Cc1cc(C)c(S(=O)(=O)c2ccccc2)cc1S(=O)(=O)NC(C)C(O)c1ccccc1` (stereo not drawn) [Example 393, N-[(trans)-2-hydroxy-1-methyl-2-phenylethyl]-2,4-dimethyl-5-(phenylsulfonyl)benzenesulfonamide], for the setting “Conc 7.5 μM, with SFRP-1, fold induction over SFRP-1 control, single dose”, the “Fold Induction with SFRP-1” value stood at 1.2 fold. Moreover, for the setting “Conc 7.5 μM, without SFRP-1, single dose”, the “Fold Induction without SFRP-1” value is listed as 1 fold.
Consider `CCCNS(=O)(=O)c1cc(S(=O)(=O)c2ccccc2)ccc1C` [Example 394, 2-methyl-5-(phenylsulfonyl)-N-propylbenzenesulfonamide], for which the fold induction at 15 µM reads like this: under setting [1], 1.5; under setting [2], 1.
Regarding `Cc1ccc(S(=O)(=O)c2ccccc2)cc1S(=O)(=O)NC(C)(C)C` [Example 395, N-(tert-butyl)-2-methyl-5-(phenylsulfonyl)benzenesulfonamide], the fold induction at 15 µM came to 1.2 under setting [1] and 1 under setting [2].
Turning to `Cc1ccc(S(=O)(=O)c2ccccc2)cc1S(=O)(=O)NCC(C)(C)C` [Example 396, N-(2,2-dimethylpropyl)-2-methyl-5-(phenylsulfonyl)benzenesulfonamide], the fold induction at 15 µM under setting [1] was found to be 1.4 and the fold induction at 15 µM under setting [2] came to 1.
For the compound `CCC(CC)NS(=O)(=O)c1cc(S(=O)(=O)c2ccccc2)ccc1C` [Example 397, N-(1-ethylpropyl)-2-methyl-5-(phenylsulfonyl)benzenesulfonamide], the fold induction at 15 µM is, setting by setting: under setting [1], 1.2; under setting [2], 1.1.
For the compound `Cc1ccc(S(=O)(=O)c2ccccc2)cc1S(=O)(=O)NC1CCCCC1` [Example 400, N-cyclohexyl-2-methyl-5-(phenylsulfonyl)benzenesulfonamide], the fold induction at 15 µM runs as follows: under setting [1], 1.8; under setting [2], 1.2.
For `Cc1ccc(S(=O)(=O)c2ccccc2)cc1S(=O)(=O)NCC(F)(F)F` [Example 401, 2-methyl-5-(phenylsulfonyl)-N-(2,2,2-trifluoroethyl)benzenesulfonamide] the same measures were 1.6 and 1.1.
For `CC(=O)c1ccc(S(=O)(=O)c2ccc(C)c(S(=O)(=O)NCCc3ccccn3)c2)cc1` [Example 403, 5-[(4-acetylphenyl)sulfonyl]-2-methyl-N-(2-pyridin-2-ylethyl)benzenesulfonamide] the same measures were 2.5 and 1.1.
For `Cc1ccc(S(=O)(=O)c2ccccc2)cc1S(=O)(=O)NC(C)(C)CO` [Example 404, N-(2-hydroxy-1,1-dimethylethyl)-2-methyl-5-(phenylsulfonyl)benzenesulfonamide] the same measures were 1.2 and 1.1.
For `Cc1ccc(S(=O)(=O)c2ccc(C(C)(C)O)cc2)cc1S(=O)(=O)NCCc1ccccn1` [Example 405, 5-{[4-(1-hydroxy-1-methylethyl)phenyl]sulfonyl}-2-methyl-N-(2-pyridin-2-ylethyl)benzenesulfonamide], the fold induction at 15 µM is, setting by setting: under setting [1], 2.1; under setting [2], 1.1.
With `Cc1ccc(S(=O)(=O)c2ccc(C(C)(O)C3CCCCC3)cc2)cc1S(=O)(=O)NCCc1ccccn1` (stereo not shown) [Example 406, 5-{[4-(1-cyclohexyl-1-hydroxyethyl)phenyl]sulfonyl}-2-methyl-N-(2-pyridin-2-ylethyl)benzenesulfonamid], the fold induction at 60 µM reads like this: (read-out: Fold Induction with SFRP-1, Conc 60 μM, with SFRP-1, fold induction over SFRP-1 control, single dose) 1.2; (read-out: Fold Induction without SFRP-1, Conc 60 μM, without SFRP-1, single dose) 0.9.
On to `Cc1ccc(S(=O)(=O)c2ccc(C(C)(O)c3ccccc3)cc2)cc1S(=O)(=O)NCCc1ccccn1` (stereo not shown) [Example 407, 5-{[4-(1-hydroxy-1-phenylethyl)phenyl]sulfonyl}-2-methyl-N-(2-pyridin-2-ylethyl)benzenesulfonamide], for which the fold induction at 15 µM under setting [1] worked out at 1.2 and the fold induction at 15 µM under setting [2] is 0.9.
Regarding `Cc1ccc(S(=O)(=O)c2ccc(C(C)(O)Cc3ccccc3)cc2)cc1S(=O)(=O)NCCc1ccccn1` (stereo not shown) [Example 408, 5-{[4-(1-hydroxy-1-methyl-2-phenylethyl)phenyl]sulfonyl}-2-methyl-N-(2-pyridin-2-ylethyl)benzenesulfonamide], the fold induction at 15 µM is 1.2 under setting [1] and 1 under setting [2].
Consider `Cc1ccc(S(=O)(=O)c2cccc(C#N)c2)cc1S(=O)(=O)NCCc1ccccn1` [Example 409, 5-[(3-cyanophenyl)sulfonyl]-2-methyl-N-(2-pyridin-2-ylethyl)benzenesulfonamide], for which the fold induction at 15 µM reads like this: under setting [1], 2.2; under setting [2], 1.3.
Consider `Cc1ccc(S(=O)(=O)c2cccc3ccccc23)cc1S(=O)(=O)NCCc1ccccn1` [Example 410, 2-methyl-5-(1-naphthylsulfonyl)-N-(2-pyridin-2-ylethyl)benzenesulfonamide], for which the fold induction at 15 µM came to 2.7 under setting [1] and 1.3 under setting [2].
For `Cc1ccc(S(=O)(=O)c2ccccc2)cc1S(=O)(=O)NC1CC(C)(C)NC(C)(C)C1` [Example 411, 2-methyl-5-(phenylsulfonyl)-N-(2,2,6,6-tetramethylpiperidin-4-yl)benzenesulfonamide], the fold induction at 15 µM stood at 1.6 under setting [1] and 1 under setting [2].
The corresponding values for `Cc1ccc(S(=O)(=O)c2ccccc2)cc1S(=O)(=O)NC1CCN(Cc2ccccc2)C1` (stereo not shown) [Example 414, N-(1-benzylpyrrolidin-3-yl)-2-methyl-5-(phenylsulfonyl)benzenesulfonamide] are 2 and 1.3.
Consider `Cc1ccc(S(=O)(=O)c2ccccc2)cc1S(=O)(=O)NC1CCc2ccccc21` (stereo not shown) [Example 415, N-(2,3-dihydro-1H-inden-1-yl)-2-methyl-5-(phenylsulfonyl)benzenesulfonamide], for which the fold induction at 15 µM runs as follows: under setting [1], 1.5; under setting [2], 1.2.
The corresponding values for `Cc1ccc(S(=O)(=O)c2cccc(O)c2)cc1S(=O)(=O)NCCc1ccccn1` [Example 416, 5-[(3-hydroxyphenyl)sulfonyl]-2-methyl-N-(2-pyridin-2-ylethyl)benzenesulfonamide] are 1.9 and 0.9.
For `Cc1ccc(S(=O)(=O)c2cc(F)cc(F)c2)cc1S(=O)(=O)NCCc1ccccn1` [Example 417, 5-[(3,5-difluorophenyl)sulfonyl]-2-methyl-N-(2-pyridin-2-ylethyl)benzenesulfonamide] the same measures were 1.8 and 1.
